Data reported in patent US11382328B2, “Rapid drug discovery methods for pathogen inactivation” (priority 2019, dated 2022).
Where “and” joins values, the source holds several entries; their conditions need not be identical. Equal entries are not always repeated. Where two headings read alike, the source gives them in different places.

System: E. coli strain W3110
Assay: Synergy assays: Biolog chemical sensitivity panels with Group IB metal, coefficient of drug interaction (CDI) from relative growth
Format: cell-based
Conditions: for CDI (coefficient of drug interaction), copper mixed with biocide: Copper (mM) section
[1] = 3rd of 3 copper concentrations (value not shown), 4th of four biocide concentrations
[2] = Copper (mM), 1st of 3 copper concentrations (head line not shown), biocide concentration 1 of 4, E. coli
[3] = Copper (mM), 1st of 3 copper concentrations (head line not shown), biocide concentration 2 of 4, E. coli
[4] = Copper (mM), 1st of 3 copper concentrations (head line not shown), biocide concentration 3 of 4, E. coli
[5] = Copper (mM), 1st of 3 copper concentrations (head line not shown), biocide concentration 4 of 4, E. coli
[6] = Copper (mM), 2nd of 3 copper concentrations (head line not shown), biocide concentration 1 of 4, E. coli
[7] = Copper (mM), 2nd of 3 copper concentrations (head line not shown), biocide concentration 2 of 4, E. coli
[8] = Copper (mM), 2nd of 3 copper concentrations (head line not shown), biocide concentration 3 of 4, E. coli
[9] = Copper (mM), 2nd of 3 copper concentrations (head line not shown), biocide concentration 4 of 4, E. coli
[10] = Copper (mM), 3rd of 3 copper concentrations (head line not shown), biocide concentration 1 of 4, E. coli
[11] = Copper (mM), 3rd of 3 copper concentrations (head line not shown), biocide concentration 2 of 4, E. coli
[12] = Copper (mM), 3rd of 3 copper concentrations (head line not shown), biocide concentration 3 of 4, E. coli
[13] = Copper (mM), 3rd of 3 copper concentrations (head line not shown), biocide concentration 4 of 4, E. coli
[14] = Silver 0.5 μM, biocide concentration 1 of 4
[15] = Silver 0.5 μM, biocide concentration 2 of 4
[16] = Silver 0.5 μM, biocide concentration 3 of 4
[17] = Silver 0.5 μM, biocide concentration 4 of 4
[18] = Silver 1.0 μM, biocide concentration 1 of 4
[19] = Silver 1.0 μM, biocide concentration 2 of 4
[20] = Silver 1.0 μM, biocide concentration 3 of 4
[21] = Silver 1.0 μM, biocide concentration 4 of 4
[22] = Silver 5.0 μM, biocide concentration 1 of 4
[23] = Silver 5.0 μM, biocide concentration 2 of 4
[24] = Silver 5.0 μM, biocide concentration 3 of 4
[25] = Silver 5.0 μM, biocide concentration 4 of 4
[26] = Gold section of Table 5, first of three gold concentrations (μM, value not given), biocide concentration 4 of 4
[27] = Gold section of Table 5, second of three gold concentrations (μM, value not given), biocide concentration 4 of 4
[28] = Gold section of Table 5, third of three gold concentrations (μM, value not given), biocide concentration 4 of 4

## acriflavine
1st of 3 copper concentrations (value not shown), 1st of four biocide concentrations
  CDI (coefficient of drug interaction), copper mixed with biocide: 1.00
1st of 3 copper concentrations (value not shown), 2nd of four biocide concentrations
  CDI (coefficient of drug interaction), copper mixed with biocide: 1.03
1st of 3 copper concentrations (value not shown), 3rd of four biocide concentrations
  CDI (coefficient of drug interaction), copper mixed with biocide: 0.95
2nd of 3 copper concentrations (value not shown), 1st of four biocide concentrations
  CDI (coefficient of drug interaction), copper mixed with biocide: 0.88
2nd of 3 copper concentrations (value not shown), 2nd of four biocide concentrations
  CDI (coefficient of drug interaction), copper mixed with biocide: 0.91
2nd of 3 copper concentrations (value not shown), 3rd of four biocide concentrations
  CDI (coefficient of drug interaction), copper mixed with biocide: 0.95
3rd of 3 copper concentrations (value not shown), 1st of four biocide concentrations
  CDI (coefficient of drug interaction), copper mixed with biocide: 0.89
3rd of 3 copper concentrations (value not shown), 2nd of four biocide concentrations
  CDI (coefficient of drug interaction), copper mixed with biocide: 0.82
3rd of 3 copper concentrations (value not shown), 3rd of four biocide concentrations
  CDI (coefficient of drug interaction), copper mixed with biocide: 0.81
[1]
  CDI (coefficient of drug interaction), copper mixed with biocide: 0.78
Gold 5 μM, biocide concentration 1 of 4, E. coli
  CDI (coefficient of drug interaction): 0.92
Gold 5 μM, biocide concentration 2 of 4, E. coli
  CDI (coefficient of drug interaction): 0.94
Gold 5 μM, biocide concentration 3 of 4, E. coli
  CDI (coefficient of drug interaction): 0.94
Gold 25 μM, biocide concentration 1 of 4, E. coli
  CDI (coefficient of drug interaction): 0.96
Gold 25 μM, biocide concentration 3 of 4, E. coli
  CDI (coefficient of drug interaction): 0.96
Gold 25 μM, biocide concentration 4 of 4, E. coli
  CDI (coefficient of drug interaction): 0.87
Gold 50 μM, biocide concentration 1 of 4, E. coli
  CDI (coefficient of drug interaction): 0.86
Gold 50 μM, biocide concentration 2 of 4, E. coli
  CDI (coefficient of drug interaction): 1.00
Gold 50 μM, biocide concentration 3 of 4, E. coli
  CDI (coefficient of drug interaction): 0.96
Gold 50 μM, biocide concentration 4 of 4, E. coli
  CDI (coefficient of drug interaction): 0.84
Silver 0.5 μM, 1st of four biocide concentrations, E. coli
  CDI (coefficient of drug interaction), silver + biocide: 0.99
Silver 0.5 μM, 2nd of four biocide concentrations, E. coli
  CDI (coefficient of drug interaction), silver + biocide: 1.03
Silver 0.5 μM, 3rd of four biocide concentrations, E. coli
  CDI (coefficient of drug interaction), silver + biocide: 0.86
Silver 0.5 μM, 4th of four biocide concentrations, E. coli
  CDI (coefficient of drug interaction), silver + biocide: 0.73
Silver 1.0 μM, 1st of four biocide concentrations, E. coli
  CDI (coefficient of drug interaction), silver + biocide: 0.97
Silver 1.0 μM, 2nd of four biocide concentrations, E. coli
  CDI (coefficient of drug interaction), silver + biocide: 0.95
Silver 1.0 μM, 3rd of four biocide concentrations, E. coli
  CDI (coefficient of drug interaction), silver + biocide: 0.87
Silver 1.0 μM, 4th of four biocide concentrations, E. coli
  CDI (coefficient of drug interaction), silver + biocide: 0.59
Silver 5.0 μM, 1st of four biocide concentrations, E. coli
  CDI (coefficient of drug interaction), silver + biocide: 0.96
Silver 5.0 μM, 3rd of four biocide concentrations, E. coli
  CDI (coefficient of drug interaction), silver + biocide: 0.54
Silver 5.0 μM, 4th of four biocide concentrations, E. coli
  CDI (coefficient of drug interaction), silver + biocide: 0.24

## NCC[C@H](O)C(=O)N[C@@H]1C[C@H](N)[C@@H](O[C@H]2O[C@H](CN)[C@@H](O)[C@H](O)[C@H]2O)[C@H](O)[C@H]1O[C@H]1O[C@H](CO)[C@@H](O)[C@H](N)[C@H]1O [amikacin]
  cell toxicity / growth curves with and without silver: enhanced cell toxicity

## N[C@@H](CC(=O)NO)C(=O)O [L-Aspartic-β-hydroxamate]
  CDI (coefficient of drug interaction), gold + biocide: 1.03 and 1.06 and 1.05 and 1.11 and 1.19 and 1.02 and 1.01

## NCC(=O)NO [glycine hydroxamate]
[2]
  CDI (coefficient of drug interaction): 1.36
[3]
  CDI (coefficient of drug interaction): Tox
[4]
  CDI (coefficient of drug interaction): Tox
[5]
  CDI (coefficient of drug interaction): Tox
[6]
  CDI (coefficient of drug interaction): 1.06
[7]
  CDI (coefficient of drug interaction): 0.47
[8]
  CDI (coefficient of drug interaction): Tox
[9]
  CDI (coefficient of drug interaction): Tox
[10]
  CDI (coefficient of drug interaction): 1.73
[11]
  CDI (coefficient of drug interaction): Tox
[12]
  CDI (coefficient of drug interaction): Tox
[13]
  CDI (coefficient of drug interaction): Tox
Gold (μM), first of 3 gold concentrations, biocide concentration 1 of 4
  CDI (coefficient of drug interaction), gold + biocide: 1.08
Gold (μM), first of 3 gold concentrations, biocide concentration 2 of 4
  CDI (coefficient of drug interaction), gold + biocide: 0.95
Gold (μM), first of 3 gold concentrations, biocide concentration 3 of 4
  CDI (coefficient of drug interaction), gold + biocide: 1.13
Gold (μM), first of 3 gold concentrations, biocide concentration 4 of 4
  CDI (coefficient of drug interaction), gold + biocide: 1.01
Gold (μM), second of 3 gold concentrations, biocide concentration 1 of 4
  CDI (coefficient of drug interaction), gold + biocide: 1.07
Gold (μM), second of 3 gold concentrations, biocide concentration 2 of 4
  CDI (coefficient of drug interaction), gold + biocide: 1.11
Gold (μM), second of 3 gold concentrations, biocide concentration 3 of 4
  CDI (coefficient of drug interaction), gold + biocide: 1.19
Gold (μM), third of 3 gold concentrations, biocide concentration 1 of 4
  CDI (coefficient of drug interaction), gold + biocide: 1.00
Gold (μM), third of 3 gold concentrations, biocide concentration 2 of 4
  CDI (coefficient of drug interaction), gold + biocide: 1.07
Gold (μM), third of 3 gold concentrations, biocide concentration 3 of 4
  CDI (coefficient of drug interaction), gold + biocide: 1.39
Gold (μM), third of 3 gold concentrations, biocide concentration 4 of 4
  CDI (coefficient of drug interaction), gold + biocide: 1.22
[14]
  CDI: 0.74
[15]
  CDI: 0.72
[16]
  CDI: 0.79
[17]
  CDI: 0.76
[18]
  CDI: 0.95
[19]
  CDI: 0.99
[20]
  CDI: 0.95
[21]
  CDI: 1.07
[22]
  CDI: 1.00
[23]
  CDI: 0.95
[24]
  CDI: 1.09
[25]
  CDI: 0.88

## Nc1nc[nH]n1 [3-Amino-1,2,4-triazole]
1st of 3 copper concentrations (value not shown), 4th of four biocide concentrations
  CDI (coefficient of drug interaction), copper mixed with biocide: Tox
[1]
  CDI (coefficient of drug interaction), copper mixed with biocide: Tox
[26]
  CDI (coefficient of drug interaction): Tox
[27]
  CDI (coefficient of drug interaction): Tox
[28]
  CDI (coefficient of drug interaction): Tox
[17]
  CDI: Tox
[21]
  CDI: Tox
[25]
  CDI: Tox

## capreomycin
[2]
  CDI (coefficient of drug interaction): 1.10
[3]
  CDI (coefficient of drug interaction): 0.91
[4]
  CDI (coefficient of drug interaction): 0.83
[5]
  CDI (coefficient of drug interaction): 0.87
[6]
  CDI (coefficient of drug interaction): 0.87
[7]
  CDI (coefficient of drug interaction): 0.86
[8]
  CDI (coefficient of drug interaction): 0.90
[9]
  CDI (coefficient of drug interaction): Tox
[10]
  CDI (coefficient of drug interaction): 0.86
[11]
  CDI (coefficient of drug interaction): 0.57
[12]
  CDI (coefficient of drug interaction): 0.49
[13]
  CDI (coefficient of drug interaction): 0.60
[26]
  CDI (coefficient of drug interaction): 1.03
Gold section of Table 5, second of three gold concentrations (μM, value not given), biocide concentration 1 of 4
  CDI (coefficient of drug interaction): 1.03
Gold section of Table 5, second of three gold concentrations (μM, value not given), biocide concentration 3 of 4
  CDI (coefficient of drug interaction): 0.97
[27]
  CDI (coefficient of drug interaction): 1.06
Gold section of Table 5, third of three gold concentrations (μM, value not given), biocide concentration 1 of 4
  CDI (coefficient of drug interaction): 1.00
Gold section of Table 5, third of three gold concentrations (μM, value not given), biocide concentration 2 of 4
  CDI (coefficient of drug interaction): 0.98
[28]
  CDI (coefficient of drug interaction): 1.14
[14]
  CDI: 0.95
[15]
  CDI: 0.92
[16]
  CDI: 0.96
[17]
  CDI: Tox
[18]
  CDI: 0.69
[19]
  CDI: 0.37
[20]
  CDI: 0.35
[21]
  CDI: Tox
[22]
  CDI: 0.41
[23]
  CDI: 0.11
[24]
  CDI: 0.02
[25]
  CDI: Tox
